Measurements published in patent US7923230B2, “Neurodegenerative protein aggregation inhibition methods and compounds” (The Board of Trustees of the Leland Stanford Junior …, priority 2003, dated 2011).

How the values were obtained:
FKBP12 = biological target: T1, FKBP12 (Homo sapiens, UniProt P62942); assay: Surface plasmon resonance, binding to immobilized FKBP12; details: SPR
T1 construct: made in house
Description: (§1) Surface Plasmon Resonance. Amide coupling was used to generate a carboxymethyldextran (CMS; BIAcore, Uppsala, Sweden) sensor chip bearing a mockimmobilized surface on flow chamber 1 (Fc1), 950 RU of Aβ(1-40) (SEQ ID NO: 3) (AnaSpec, San Jose, Calif.) on Fc2, and 2800 RU of bacterially-expressed recombinant FKBP12 on Fc3. The regeneration conditions were as follows: for removing analyte from Aβ surfaces (4 M guanidine HCl, 10 mM Tris buffer pH 8.0) and for removing analyte from the FKBP surface (750 mM NaCl, 250 mM NaOH). To calculate KD1 and KD2 (±SEM) for Aβ binding (in part C), the control signal was subtracted and data was fit according to the method of Cairo et al. (Biochemistry 41, 8620-8629 (2002). In each case, eight concentrations of analyte distributed around the KD were injected in duplicate in the running buffer (HBS-EP; BIAcore). Congo red is not uniquely specific for Aβ and, consistent with this, it also binds FKBP, but at a KD 20-fold higher than SLF-CR.

Aβ(1-42) [1] = biological target: T2, Aβ(1-42) (Homo sapiens, UniProt P05067); assay: Thioflavin T fluorescence assay of Aβ aggregation; format: biochemical; details: highest drug concentrations
T2 construct: purchased AnaSpec, San Jose, Calif; host or cells: synthetic peptide
Description: Fibrillization Procedure. Purified amyloid beta (1-42) (SEQ ID NO: 2) was purchased from AnaSpec and used without further purification. Fibrillization conditions are based on those previously described by Gordon and Meredith (Gordon, D. J. and Meredith, S. C. (2003) Biochemistry 42:475-485). Briefly, peptide was dissolved in PBS to a final concentration of 100 uM. To this solution, was added either FKBP12 (to a final concentration of 1 uM) or an equivalent volume of buffer alone (100 mM NaCl, 10 mM Tris-HCl pH 7.0). Additionally, either agent (dissolved in DMF) or DMF alone was added. These mixtures were placed at room temperature for at least 4 days without disruption. Thioflavin T assay. […] The mixture was vortexed briefly and the fluorescence emission maximum measured. For the dose dependence experiment, the emission wavelength was recorded at 490 nm. […] Turbidity was measured at 30° C. with orbital shaking in half area, nonbinding surface 96-well plates (Corning) on a TECAN GENios plate reader. […] Fluorescence was measured on a SpectraMax Gemini (Molecular Devices, Sunnyvale, Calif.), using an excitation wavelength of 446 nm (±5 nm) and an emission of 490 nm (±5 nm). The data was fit to sigmoidal curves using DeltaGraph (DeltaPoint, Inc) and the IC50 for each treatment recorded. […] A linear relationship between thioflavin T fluorescence and percent aggregation was used for simplicity.

Aβ(1-42) [2] = biological target: T2, Aβ(1-42); assay: Transmission electron microscopy of Aβ fibrils; format: biochemical; details: for size or abundance of Aβ fibrils (TEM): 1 uM drug, 1 μM FKBP where present
Description: Transmission Electron Microscopy (TEM). Electron microscopy was performed essentially as previously described (Gordon, D. J. and Meredith, S. C. (2003) Biochemistry 42:475-485). Briefly, solutions subjected to the fibrillization conditions described above were applied to Formvar coated 400-mesh glow-discharged copper grids and contrasted with 1% uranyl acetate solution. Grids were analyzed at 80 kV and a magnification of 100,000×. Transmission Electron Microscopy. TEM was conducted using 300 mesh formvar-coated copper grids and 1% uranyl acetate stain on a JEOL TEM1230 and imaged with a Gatan 967 slow-scan CCD at 80 kV. Samples were incubated for 4 days at 22° C. in PBS pH 7.2 containing 25 uM Aβ(1-42) (SEQ ID NO: 2), 1 μM FKBP and 1 uM drug, where appropriate. The protocol used to prepare Aβ can influence fibrillogenesis and the reproducibility of the assays. Therefore, it can be useful to examine Aβ aggregation under a variety of conditions. In addition to the hydroxide method used above, stock solutions of Aβ were also prepared using a trifluoroacetic acid (TFA) protocol (Crystal, et al., J. Neurochem. 86, 1359-1368 (2003). TEM on samples originated from these stock solutions yielded similar results, although the typical size of the fibrils was considerably shorter.

Aβ(1-42) [3] = biological target: T2, Aβ(1-42); assay: Light scattering (turbidity) of Aβ(1-42) fibrillogenesis; format: biochemical
Description: Light Scattering. Fresh A13(1-42) (Anaspec, San Jose, Calif.) (SEQ ID NO: 2) was prepared by resuspending the peptide in […] pH 9.5 to 10, sonicating for 5 minutes, and passing the resulting solutions through a 10 kDa filter (YM-10; Millipore, Bedford, Mass.) (31). Stock solutions (100 μM in 2 mM NaOH) were stored at −80° C. and diluted to 25 uM with PBS pH 7.2 to initiate fibrillogenesis. Identical methods were used to prepare the Aβ(1-42) (SEQ ID NO: 2) solutions utilized for TEM, AFM, MTT, Tunel and thioflavin T experiments. Turbidity was measured at 30° C. with orbital shaking in half area, nonbinding surface 96-well plates (Corning) on a TECAN GENios plate reader. The total volume was 50 uL and the concentration of FKBP was 1 uM. The results are representative of two independent experiments each performed in triplicate.

Rat hippocampal neurons [4] = assay: Tunel staining / immunofluorescence microscopy of neurons exposed to Aβ; format: cell-based; details: for Tunel positive cells / Aβ toxicity: Aβ 25 uM, drug and FKBP 1 uM, incubated with Aβ prior to addition
Description: Immunofluorescence Microscopy. Rat hippocampal neurons (P0) were cultured 10 days on Matrigel-coated glass coverslips (Deckgläser, Germany) in 24-well plates (Corning) at 37° C. and 5% CO2. Aβ solutions were prepared and applied as above. The final concentration of Aβ was 25 uM and drug and FKBP were present at 1 uM. Following a two-day incubation, cells were prepared for microscopy as described (R. Kayed, et al., Science 300, 486-489 (2003).

Rat hippocampal neurons [5] = assay: MTT cell viability assay, neurons exposed to pre-treated Aβ(1-42); format: cell-based; details: high molar concentrations of Aβ; SLF-Benz-CR at 100 nM
Description: Cell Viability Assay. Rat hippocampal (E19.5 and P0) neurons were prepared as previously described (Graef, et al., Nature 401, 703-708 (1999). Fresh Aβ(1-42) (100 uM) (SEQ ID NO: 2) was prepared under basic conditions and incubated with inhibitors for two days at 22° C. in PBS pH 7.2 and then diluted 1:4 with culture media and applied to neurons. MTT assays were conducted as per manufacturer's specifications after two additional days of incubation at 37° C. and 5% CO2. The inhibitor concentrations are the in vitro incubation values.

Aβ(1-40) = biological target: T3, Aβ(1-40) (Homo sapiens, UniProt P05067); assay: Surface plasmon resonance, binding to immobilized Aβ(1-40)
T3 construct: purchased AnaSpec, San Jose, Calif; host or cells: synthetic peptide
Description: as §1

Aβ(1-42) [6] = assay: Atomic force microscopy of Aβ aggregates; format: biochemical; details: samples containing Aβ(1-42) and FKBP
Description: Atomic Force Microscopy. Samples for AFM were prepared as for TEM, above, applied to a clean silicon surface, washed twice with dH2O, dried, and imaged at a scan rate of 1 Hz using a silicon probe (TESP) on an AFM Nanoscope Dimension 3000 (Digital Instruments) in Tapping Mode (C. Goldsbury, et al, J. Mol. Biol. 285, 33-39 (1999). The dimensions of the globular aggregates in the samples treated with SLF-CR/FKBP were approximated using NIH Image.

T1 sequence (P62942 whole entry): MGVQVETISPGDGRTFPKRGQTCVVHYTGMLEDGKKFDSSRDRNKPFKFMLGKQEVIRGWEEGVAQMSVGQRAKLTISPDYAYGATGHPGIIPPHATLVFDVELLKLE
T2 sequence (P05067 672-713): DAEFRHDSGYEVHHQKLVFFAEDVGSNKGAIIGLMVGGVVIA
T3 sequence (P05067 672-711): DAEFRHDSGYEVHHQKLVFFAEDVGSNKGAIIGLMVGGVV

| Molecule | size or abundance of Aβ fibrils (TEM) (Aβ(1-42) [2]) | effect on Aβ aggregation / turbidity (Aβ(1-42) [3]) | Tunel positive cells / Aβ toxicity (Rat hippocampal neurons [4]) | binding to immobilized FKBP (FKBP12) | further results |
| --- | --- | --- | --- | --- | --- |
| Nc1c(/N=N/c2ccc(-c3ccc(/N=N/c4cc(S(=O)(=O)O)c5ccccc5c4N)cc3)cc2)cc(S(=O)(=O)O)c2ccccc12 [CR, Congo red, reference compound] | ineffective | modest inhibitor of turbidity | failed to substantially reduce the number of Tunel positive cells |  | KD for FKBP, fold higher than SLF-CR (FKBP12): 20 fold; thioflavin T fluorescence (Aβ(1-42) [1]): failed to fully block thioflavin T fluorescence; rescue of neurons (Rat hippocampal neurons [5]): unable to rescue |
| CCC(C)(C)C(=O)C(=O)N1CCCCC1C(=O)OC(CCc1ccc(OC)c(OC)c1)c1cccc(OCC(=O)Nc2c(N=Nc3ccc(-c4ccc(N=Nc5cc(S(=O)(=O)O)c6ccccc6c5N)cc4)cc3)cc(S(=O)(=O)O)c3ccccc23)c1 (stereo not drawn) [SLF-CR] | ineffective |  | failed to substantially reduce the number of Tunel positive cells | comparable affinity | affinity for Aβ (Aβ(1-40); immobilized Aβ(1-40), SPR): not significantly different from that of CR; SPR response on immobilized amyloid (Aβ(1-40); ternary complex test, compound alone or pre-incubated with FKBP): ~140 RUs; recruitment of FKBP to Aβ by electron microscopy (Aβ(1-42) [2]): confirmed; fibril formation (AFM) (Aβ(1-42) [6]): failed to form fibrils |
| CCC(C)(C)C(=O)C(=O)N1CCCC[C@H]1C(=O)O[C@H](CCc1ccc(OC)c(OC)c1)c1cccc(OCC(=O)O)c1 [SLF] |  |  |  | comparable affinity |  |
| CC[C@@]1(O)C(=O)OCc2c1cc1n(c2=O)Cc2cc3ccccc3nc2-1 [camptothecin, reference compound] |  |  |  |  | remaining cells positive for Tunel (Rat hippocampal neurons [4]; after two days): 36% |
| FKBP: bacterially-expressed recombinant FKBP12, FK506-binding protein, prolyl isomerase | does not influence the formation or architecture of Aβ fibrils | did not interfere with Aβ aggregation | failed to substantially reduce the number of Tunel positive cells |  |  |
